Measured values taken from PubChem BioAssay AID1963858 (Molecular Pharmacology Branch, DTP, NCI, 2024).

Test system: HOP-62 multicell spheroids with HUVEC/MSC, viability
Assay: Anticancer human tumor HOP-62 cell line growth inhibition [KRAS2];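 also: viability read after a week of compound exposure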;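 as to viability, T/C: 100% = DMSO vehicle-treated spheroids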
Settings: for IC50: curve of first compound; for viability, T/C: stronger effect = lower value
Outline: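 KRAS-mutant tumor cells were grown as spheroids with HUVEC endothelial cells and human MSCs as stroma. Targeted agents were tested alone and with KRAS pathway inhibitors. Doses started at or near clinical Cmax, or 10 microM, descending half-log.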

[1] = second compound 0.1 µM, first compound 0.0316 µM
[2] = second compound 0.1 µM, first compound 0.1 µM
[3] = second compound 0.1 µM, first compound 0.316 µM
[4] = second compound 0.1 µM, first compound 1 µM
[5] = second compound 0.1 µM, first compound 3.16 µM
[6] = second compound 0.1 µM, first compound 10 µM
[7] = second compound 0.316 µM, first compound 0.0316 µM
[8] = second compound 0.316 µM, first compound 0.1 µM
[9] = second compound 0.316 µM, first compound 0.316 µM
[10] = second compound 0.316 µM, first compound 1 µM
[11] = second compound 0.316 µM, first compound 3.16 µM
[12] = second compound 0.316 µM, first compound 10 µM
[13] = second compound 1 µM, first compound 0.0316 µM
[14] = second compound 1 µM, first compound 0.1 µM
[15] = second compound 1 µM, first compound 0.316 µM
[16] = second compound 1 µM, first compound 1 µM
[17] = second compound 1 µM, first compound 3.16 µM
[18] = second compound 1 µM, first compound 10 µM
[19] = second compound 3.16 µM, first compound 0.0316 µM
[20] = second compound 3.16 µM, first compound 0.1 µM
[21] = second compound 3.16 µM, first compound 0.316 µM
[22] = second compound 3.16 µM, first compound 1 µM
[23] = second compound 3.16 µM, first compound 3.16 µM
[24] = second compound 3.16 µM, first compound 10 µM

CC1(C)CCC(CN2CCN(c3ccc(C(=O)NS(=O)(=O)c4ccc(NCC5CCOCC5)c([N+](=O)[O-])c4)c(Oc4cnc5[nH]ccc5c4)c3)CC2)=C(c2ccc(Cl)cc2)C1 + C=CC(=O)N1CCN(c2nc(OCC3CCCN3C)nc3c2CCN(c2cccc4cccc(C)c24)C3)CC1CC#N
IC50 (second compound 0.0316 µM): 1510 nM
IC50 (second compound 0.1 µM): < 31.6 nM
IC50 (second compound 0.316 µM): < 31.6 nM
IC50 (second compound 1 µM): < 31.6 nM
IC50 (second compound 3.16 µM): < 31.6 nM
viability, T/C (second compound 0.0316 µM, first compound 0.0316 µM): 58.8%
viability, T/C (second compound 0.0316 µM, first compound 0.1 µM): 54.1%
viability, T/C (second compound 0.0316 µM, first compound 0.316 µM): 54.9%
viability, T/C (second compound 0.0316 µM, first compound 1 µM): 56%
viability, T/C (second compound 0.0316 µM, first compound 3.16 µM): 39.5%
viability, T/C (second compound 0.0316 µM, first compound 10 µM): 22.7%
viability, T/C [1]: 48.9%
viability, T/C [2]: 41.4%
viability, T/C [3]: 37.8%
viability, T/C [4]: 36.4%
viability, T/C [5]: 37.2%
viability, T/C [6]: 21.6%
viability, T/C [7]: 36.6%
viability, T/C [8]: 41.6%
viability, T/C [9]: 26.4%
viability, T/C [10]: 38.2%
viability, T/C [11]: 26.9%
viability, T/C [12]: 16%
viability, T/C [13]: 24.6%
viability, T/C [14]: 22.6%
viability, T/C [15]: 27.1%
viability, T/C [16]: 22.9%
viability, T/C [17]: 24.1%
viability, T/C [18]: 5.4%
viability, T/C [19]: 1.22%
viability, T/C [20]: 0.15%
viability, T/C [21]: 0.14%
viability, T/C [22]: 0.16%
viability, T/C [23]: 0.14%
viability, T/C [24]: 0.18%

CC1OCC2(CCN(c3cnc(Sc4ccnc(N)c4Cl)c(N)n3)CC2)C1N (stereo not given) + C=CC(=O)N1CCN(c2nc(=O)n(-c3c(C)ccnc3C(C)C)c3nc(-c4c(O)cccc4F)c(F)cc23)C(C)C1
IC50 (second compound 0.1 µM): < 31.6 nM
IC50 (second compound 0.316 µM): 62.3 nM
IC50 (second compound 1 µM): 90.5 nM
IC50 (second compound 3.16 µM): 134 nM
IC50 (second compound 10 µM): < 31.6 nM
viability, T/C [1]: 47.7%
viability, T/C [2]: 39.1%
viability, T/C [3]: 26.5%
viability, T/C [4]: 16.3%
viability, T/C [5]: 12.5%
viability, T/C [6]: 13.3%
viability, T/C [7]: 63.7%
viability, T/C [8]: 39.8%
viability, T/C [9]: 28.4%
viability, T/C [10]: 19.2%
viability, T/C [11]: 15.6%
viability, T/C [12]: 13.6%
viability, T/C [13]: 67.5%
viability, T/C [14]: 47%
viability, T/C [15]: 36.9%
viability, T/C [16]: 27.4%
viability, T/C [17]: 18.2%
viability, T/C [18]: 21.5%
viability, T/C [19]: 61%
viability, T/C [20]: 51.7%
viability, T/C [21]: 42.5%
viability, T/C [22]: 30.1%
viability, T/C [23]: 24.1%
viability, T/C [24]: 24.9%
viability, T/C (second compound 10 µM, first compound 0.0316 µM): 44.6%
viability, T/C (second compound 10 µM, first compound 0.1 µM): 40.7%
viability, T/C (second compound 10 µM, first compound 0.316 µM): 30.1%
viability, T/C (second compound 10 µM, first compound 1 µM): 26.2%
viability, T/C (second compound 10 µM, first compound 3.16 µM): 25.8%
viability, T/C (second compound 10 µM, first compound 10 µM): 23.2%
